Consider 13 compounds from ChEMBL document CHEMBL4706599, “Discovery of novel quinazoline derivatives as potent PI3Kδ inhibitors with high selectivity” (Eur J Med Chem, 2020).

The target in data set [1] is T1, Phosphatidylinositol 4,5-bisphosphate 3-kinase catalytic subunit delta isoform (Homo sapiens) (UniProt O00329).
T1 sequence (whole entry): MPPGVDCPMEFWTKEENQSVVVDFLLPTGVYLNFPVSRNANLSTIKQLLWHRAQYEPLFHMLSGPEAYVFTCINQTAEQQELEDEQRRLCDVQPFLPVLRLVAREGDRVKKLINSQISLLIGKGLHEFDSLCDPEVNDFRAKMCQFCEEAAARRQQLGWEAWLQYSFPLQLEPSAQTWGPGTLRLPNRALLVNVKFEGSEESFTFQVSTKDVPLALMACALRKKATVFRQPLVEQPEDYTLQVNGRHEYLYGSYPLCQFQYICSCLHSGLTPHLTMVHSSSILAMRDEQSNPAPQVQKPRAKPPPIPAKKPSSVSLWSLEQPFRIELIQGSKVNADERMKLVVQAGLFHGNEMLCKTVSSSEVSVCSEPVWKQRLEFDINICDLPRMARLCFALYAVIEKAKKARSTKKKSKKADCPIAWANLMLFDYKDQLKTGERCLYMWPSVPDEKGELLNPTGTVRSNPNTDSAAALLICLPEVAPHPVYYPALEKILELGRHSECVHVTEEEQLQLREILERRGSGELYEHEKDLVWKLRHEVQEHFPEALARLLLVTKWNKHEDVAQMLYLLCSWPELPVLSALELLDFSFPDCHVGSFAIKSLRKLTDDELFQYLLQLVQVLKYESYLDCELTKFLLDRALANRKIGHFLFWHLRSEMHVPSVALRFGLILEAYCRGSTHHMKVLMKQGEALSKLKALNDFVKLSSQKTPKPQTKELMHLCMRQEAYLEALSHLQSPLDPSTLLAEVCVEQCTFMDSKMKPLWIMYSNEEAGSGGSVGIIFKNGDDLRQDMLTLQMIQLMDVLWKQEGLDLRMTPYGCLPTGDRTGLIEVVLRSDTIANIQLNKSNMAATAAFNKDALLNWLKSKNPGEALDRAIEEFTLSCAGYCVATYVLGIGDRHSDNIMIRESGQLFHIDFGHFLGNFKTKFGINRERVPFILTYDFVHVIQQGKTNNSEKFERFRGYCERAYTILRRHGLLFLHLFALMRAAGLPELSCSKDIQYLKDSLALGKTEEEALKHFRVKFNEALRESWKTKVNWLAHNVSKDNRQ
In words: Inhibition of PI3Kdelta (unknown origin) at 200 nM by ADP-Glo kinase assay relative to control. On the technique in general: ADP-Glo turns the ADP formed in a reaction into a luminescent signal.

For data set [2], the system named is Ramos. In words: Antiproliferative activity against human Ramos cells assessed as inhibition of cell growth after 48 hrs by MTT assay. In kind it is functional, cell-based. On the technique in general: Formazan colour is commonly taken as a measure of viable cells.
The subject of data set [3] is Raji. Briefly: Antiproliferative activity against human Raji cells assessed as inhibition of cell growth after 48 hrs by MTT assay. In kind it is functional, cell-based.
The subject of data set [4] is Raji. In words: Induction of apoptosis in human Raji cells assessed as late apoptotic cells at 5 uM measured after 24 hrs by Annexin V-FITC/PI staining based flow cytometry (reference value: 2.11 %). In kind it is functional.
Data set [5] addresses T2, Phosphatidylinositol 4,5-bisphosphate 3-kinase catalytic subunit delta isoform (Homo sapiens, UniProt O00329).
T2 sequence (O00329 whole entry): T1 sequence (whole entry)
In words: Inhibition of PI3Kdelta (unknown origin) by ADP-Glo kinase assay.

A short description of data set [6]: Metabolic stability in human liver microsomes assessed as compound remaining at 1 uM measured up to 45 mins in presence of NADPH by LC/MS analysis. The conditions noted are these: 0.75 h. It is filed as ADME, Microsome. Background: Microsomes from liver hold many membrane-bound enzymes, among them those of drug oxidation.
The species named for data set [7] is Homo sapiens. Briefly: Selectivity index, ratio of IC50 for PI3Kbeta (unknown origin) to IC50 for PI3Kdelta (unknown origin).
Data set [8] has as its target Phosphatidylinositol 4,5-bisphosphate 3-kinase catalytic subunit alpha isoform (Homo sapiens, UniProt P42336). Briefly: Inhibition of PI3Kalpha (unknown origin).
For data set [9], the target named is Phosphatidylinositol 4,5-bisphosphate 3-kinase catalytic subunit gamma isoform (Homo sapiens, UniProt P48736). Briefly: Inhibition of PI3Kgamma (unknown origin).
Data set [10] has as its system Raji. In words: Antiproliferative activity against human Raji cells assessed as reduction in cell viability at 10 uM after 24 hrs by MTT assay. In kind it is functional.
In data set [11] the target is Phosphatidylinositol 4,5-bisphosphate 3-kinase catalytic subunit beta isoform (Homo sapiens, UniProt P42338). Briefly: Inhibition of PI3Kbeta (unknown origin).
Data set [12] concerns Raji. Briefly: Antiproliferative activity against human Raji cells assessed as reduction in cell viability at 10 uM by MTT assay. It is filed as functional, cell-based. The conditions noted are these: TDE = time-dependent effect.
Data set [13] is described as follows: Metabolic stability in rat liver microsomes assessed as compound remaining at 1 uM measured up to 45 mins in presence of NADPH by LC/MS analysis. In kind it is ADME, Microsome. The note with it: 0.75 h.
Data set [14] concerns Raji. In words: Inhibition of PI3K/Akt signalling pathway in human Raji cells assessed as reduction in Akt phosphorylation at Ser473 residue after 24 hrs by Western blot analysis. It is filed as cell-based. The conditions noted are these: dose 1-1000 nM.
The species named for data set [15] is Homo sapiens. In words: Selectivity index, ratio of IC50 for PI3Kalpha (unknown origin) to IC50 for PI3Kdelta (unknown origin).
In data set [16] the test system is Raji. In words: Antiproliferative activity against human Raji cells assessed as reduction in cell viability after 24 hrs by MTT assay. It is filed as functional, cell-based. The note with it: dose 0.2-15 µM.
The species named for data set [17] is Homo sapiens. In words: Selectivity index, ratio of IC50 for PI3Kgamma (unknown origin) to IC50 for PI3Kdelta (unknown origin).

Sequence of Phosphatidylinositol 4,5-bisphosphate 3-kinase catalytic subunit beta isoform (P42338 whole entry, canonical isoform): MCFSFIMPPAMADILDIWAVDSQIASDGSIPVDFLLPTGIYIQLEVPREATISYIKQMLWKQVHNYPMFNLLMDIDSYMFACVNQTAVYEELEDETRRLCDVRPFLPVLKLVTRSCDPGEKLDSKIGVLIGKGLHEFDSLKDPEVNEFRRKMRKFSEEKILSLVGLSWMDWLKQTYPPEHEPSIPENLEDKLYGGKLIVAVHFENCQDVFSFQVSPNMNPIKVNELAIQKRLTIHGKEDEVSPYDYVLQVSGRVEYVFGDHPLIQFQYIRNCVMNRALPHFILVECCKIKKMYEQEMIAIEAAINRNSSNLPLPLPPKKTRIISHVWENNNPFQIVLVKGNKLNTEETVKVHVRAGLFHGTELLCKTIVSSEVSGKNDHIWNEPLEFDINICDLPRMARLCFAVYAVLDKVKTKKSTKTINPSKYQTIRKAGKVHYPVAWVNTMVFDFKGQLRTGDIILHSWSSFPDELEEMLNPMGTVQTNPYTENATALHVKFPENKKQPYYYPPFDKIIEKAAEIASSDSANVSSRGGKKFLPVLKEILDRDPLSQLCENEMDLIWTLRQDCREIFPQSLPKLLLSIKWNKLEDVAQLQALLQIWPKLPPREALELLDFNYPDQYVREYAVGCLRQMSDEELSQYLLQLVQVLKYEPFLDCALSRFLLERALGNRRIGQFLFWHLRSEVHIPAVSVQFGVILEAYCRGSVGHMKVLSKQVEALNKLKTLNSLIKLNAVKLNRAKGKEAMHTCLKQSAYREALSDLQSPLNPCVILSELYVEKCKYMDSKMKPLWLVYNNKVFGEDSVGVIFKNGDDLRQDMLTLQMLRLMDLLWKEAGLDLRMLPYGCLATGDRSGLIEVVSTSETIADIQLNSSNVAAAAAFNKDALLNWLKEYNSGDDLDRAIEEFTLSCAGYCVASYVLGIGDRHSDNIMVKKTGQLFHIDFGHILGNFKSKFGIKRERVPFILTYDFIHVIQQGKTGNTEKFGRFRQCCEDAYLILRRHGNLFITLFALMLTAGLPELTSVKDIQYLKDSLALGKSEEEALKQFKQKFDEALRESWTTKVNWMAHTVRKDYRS
Sequence of Phosphatidylinositol 4,5-bisphosphate 3-kinase catalytic subunit gamma isoform (P48736 whole entry, canonical isoform): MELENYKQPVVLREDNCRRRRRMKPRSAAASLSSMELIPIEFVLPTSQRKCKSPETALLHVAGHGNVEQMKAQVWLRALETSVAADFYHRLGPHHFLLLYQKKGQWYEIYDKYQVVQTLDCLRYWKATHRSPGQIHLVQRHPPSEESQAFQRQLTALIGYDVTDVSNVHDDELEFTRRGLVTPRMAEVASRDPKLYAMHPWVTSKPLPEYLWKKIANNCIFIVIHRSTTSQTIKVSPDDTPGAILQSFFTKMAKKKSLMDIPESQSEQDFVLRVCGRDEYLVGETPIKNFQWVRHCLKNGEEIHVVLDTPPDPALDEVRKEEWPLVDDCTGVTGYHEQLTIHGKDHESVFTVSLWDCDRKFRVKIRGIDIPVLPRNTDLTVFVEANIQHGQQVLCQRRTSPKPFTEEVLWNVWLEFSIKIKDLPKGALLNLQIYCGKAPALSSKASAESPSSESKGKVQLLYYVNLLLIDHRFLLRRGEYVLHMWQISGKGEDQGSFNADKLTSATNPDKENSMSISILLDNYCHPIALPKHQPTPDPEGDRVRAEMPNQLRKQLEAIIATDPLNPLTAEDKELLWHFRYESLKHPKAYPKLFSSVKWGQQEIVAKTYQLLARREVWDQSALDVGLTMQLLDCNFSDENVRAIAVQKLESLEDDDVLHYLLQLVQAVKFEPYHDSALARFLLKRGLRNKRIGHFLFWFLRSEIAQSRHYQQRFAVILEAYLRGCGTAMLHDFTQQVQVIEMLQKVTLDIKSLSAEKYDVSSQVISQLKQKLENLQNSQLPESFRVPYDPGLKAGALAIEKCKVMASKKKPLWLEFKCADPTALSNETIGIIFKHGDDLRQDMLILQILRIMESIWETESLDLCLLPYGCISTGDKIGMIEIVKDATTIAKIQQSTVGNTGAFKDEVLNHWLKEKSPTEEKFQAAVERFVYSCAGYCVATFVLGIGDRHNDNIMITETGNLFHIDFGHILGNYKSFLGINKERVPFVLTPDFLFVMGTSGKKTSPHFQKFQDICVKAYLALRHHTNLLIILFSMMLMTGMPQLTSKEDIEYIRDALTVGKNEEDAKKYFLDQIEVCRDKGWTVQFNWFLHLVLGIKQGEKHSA
Sequence of Phosphatidylinositol 4,5-bisphosphate 3-kinase catalytic subunit alpha isoform (P42336 whole entry, canonical isoform): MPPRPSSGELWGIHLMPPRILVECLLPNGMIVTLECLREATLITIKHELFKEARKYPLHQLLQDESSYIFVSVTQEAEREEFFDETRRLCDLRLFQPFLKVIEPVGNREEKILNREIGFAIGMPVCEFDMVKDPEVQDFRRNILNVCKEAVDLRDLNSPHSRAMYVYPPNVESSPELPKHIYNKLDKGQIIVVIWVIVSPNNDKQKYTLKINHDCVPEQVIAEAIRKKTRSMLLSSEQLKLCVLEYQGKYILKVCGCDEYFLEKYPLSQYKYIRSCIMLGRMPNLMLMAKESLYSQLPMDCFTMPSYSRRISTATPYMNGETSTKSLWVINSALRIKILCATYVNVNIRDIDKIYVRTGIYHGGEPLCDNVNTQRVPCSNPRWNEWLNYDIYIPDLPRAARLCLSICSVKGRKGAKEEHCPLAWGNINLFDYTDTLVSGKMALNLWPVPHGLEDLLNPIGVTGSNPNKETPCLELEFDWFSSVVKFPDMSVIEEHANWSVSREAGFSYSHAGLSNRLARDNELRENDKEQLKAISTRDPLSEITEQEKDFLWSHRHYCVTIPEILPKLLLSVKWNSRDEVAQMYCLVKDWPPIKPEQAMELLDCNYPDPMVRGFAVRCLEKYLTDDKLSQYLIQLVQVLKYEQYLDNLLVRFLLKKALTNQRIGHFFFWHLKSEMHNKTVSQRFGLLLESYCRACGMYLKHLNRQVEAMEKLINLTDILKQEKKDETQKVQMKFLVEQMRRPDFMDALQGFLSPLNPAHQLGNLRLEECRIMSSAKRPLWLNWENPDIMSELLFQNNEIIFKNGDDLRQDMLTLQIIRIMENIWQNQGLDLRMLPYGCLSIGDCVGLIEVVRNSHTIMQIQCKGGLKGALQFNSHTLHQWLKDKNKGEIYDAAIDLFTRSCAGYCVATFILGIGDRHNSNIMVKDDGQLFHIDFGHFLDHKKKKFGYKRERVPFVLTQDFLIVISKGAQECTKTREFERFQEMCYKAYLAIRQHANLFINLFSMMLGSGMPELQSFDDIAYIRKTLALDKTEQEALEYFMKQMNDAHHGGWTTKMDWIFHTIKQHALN

For `C=CC(=O)Nc1cccc(Oc2ncnc3ccc(-c4ccc(Cl)nc4)cc23)c1`, in data set [1], the inhibition amounted to 33.1%. The IC50 in data set [2] was found to be 10.1 µM.

Take `Cn1c(=O)n(-c2ccc(C(C)(C)C#N)cc2)c2c3cc(-c4cnc5ccccc5c4)ccc3ncc21` [DACTOLISIB]: the inhibition in data set [1] was found to be 66.3%. The half-maximal inhibitory concentration (IC50) in data set [3] was determined as 0.3 µM; in data set [2], 0.6 µM. The Activity in [4] is given as 10.24%.

For the compound `C=CC(=O)N1CCc2ccc(Nc3ncnc4ccc(-c5cnc6ccccc6c5)cc34)cc21`, the IC50 in data set [5] stood at 0.495 µM; in data set [3] it was 0.9 µM; in data set [2], 17 µM.

For the compound `C=CC(=O)Nc1cccc(Oc2ncnc3ccc(-c4cnc5ccccc5c4)cc23)c1`, the inhibition in data set [1] came to 29.5%. Moreover, the concentration for half-maximal inhibition (IC50) in data set [3] was found to be 8.6 µM; in [2], 10.6 µM.

With `C=CC(=O)Nc1cccc(Nc2ncnc3ccc(-c4cnc5ccccc5c4)cc23)c1`, the 50% inhibitory concentration (IC50) in [5] is 0.117 µM; in data set [3] it was 3.5 µM; in [2] it was above 50 µM.

Take `C/C=C/C(=O)Nc1cccc(Nc2ncnc3ccc(-c4cnc5ccccc5c4)cc23)c1`: the IC50 in data set [5] is 0.129 µM; in data set [3] it was 2.7 µM; in data set [2], 5 µM.

`C=CC(=O)Nc1cccc(Nc2ncnc3ccc(-c4ccc(Cl)nc4)cc23)c1` showed an inhibition in data set [1] of 64.6%. Further, the concentration for half-maximal inhibition (IC50) in data set [5] worked out at 0.104 µM; in data set [3] it was 11.6 µM.

In data set [1], `C=CC(=O)Nc1cccc(Nc2ncnc3ccc(-c4ccc(F)nc4)cc23)c1` returned an inhibition of 46.6%. Besides, the 50% inhibitory concentration (IC50) in data set [3] was above 50 µM.

For the compound `C=CC(=O)Nc1cc(Nc2ncnc3ccc(-c4cnc5ccccc5c4)cc23)ccc1C`, the Stabilty result in data set [6] and in data set [13] was “Unstable” in each case. Also, the half-inhibitory concentration (IC50) in data set [5] stood at 0.0275 µM; in [8] it was 0.561 µM; in [3] it was 8.5 µM; in data set [2], 5.4 µM; in data set [9], 1.25 µM; in data set [11], 19.6 µM. Moreover, the Ratio IC50 was determined as 300 in [7], 20 in data set [15] and 45 in [17]. Also, the Activity in [10] was above 50%; in data set [12], “Tde”; in data set [4], 10.78%; in [16], “Dose-dependent effect”. For the same compound, the inhibition entry in data set [14] was “Dose-dependent effect”.

Compound `C=CC(=O)Nc1cccc(Oc2ncnc3ccc(-c4ccc(F)nc4)cc23)c1` yielded an inhibition in data set [1] of 23.4%. For the same compound, the half-inhibitory concentration (IC50) in [3] and in data set [2] was 11 µM each time.

Regarding `CCC(=O)Nc1cccc(Nc2ncnc3ccc(-c4cnc5ccccc5c4)cc23)c1`, inhibition in data set [5] was half-maximal at 0.021 µM (IC50).

For `CC#CC(=O)Nc1cccc(Nc2ncnc3ccc(-c4cnc5ccccc5c4)cc23)c1`, the figures for the concentration for half-maximal inhibition (IC50) in data set [5] and in data set [2] were 0.41 µM and above 50 µM, respectively.

The compound `C=CC(=O)Nc1cccc(Oc2ncnc3ccc(-c4cccnc4)cc23)c1` registered an inhibition in data set [1] of 41.8%. Moreover, the IC50 in data set [3] came out at 14.8 µM; in data set [2] it was 9.4 µM.

As usually defined, the inhibition is the relative decrease from the control value, in per cent. As usually defined, the IC50 is the concentration needed to halve the response being measured.
